Here are results for 25 molecules from patent publication US20070275968A1, “Substituted Biphenyl Derivative” (priority 2004, published 2007).

One series has as its system NRK-49F cells. Briefly: Collagen synthesis inhibition test. The series is classed as cell-based. The settings on record: Rattus norvegicus, 25 ng/mL TGF-β added, cultured about 44 hr, 3H-labeled proline taken into collagen, no TGF-β = 100% inhibition, no test compound = 0% inhibition, read-out: Collagen synthesis inhibiting activity IC50. As to the method:
Collagen Synthesis Inhibition Test
Collagen synthesis inhibiting activity was evaluated by the following assay.
NRK-49F cells (Dainippon Pharmaceutical) are seeded into a 96-well plate. After becoming confluent, the medium is changed to a serum-free Dulbecco's modified MEM medium (Invitrogen) containing 5 μg/mL insulin, 5 μg/mL transferin, and 5 ng/mL selenious acid. One day later, the medium is changed to a serum-free Dulbecco's modified MEM medium (80 μl) containing 10 ng/mL IGF-II (Sigma) and 50 μg/mL L-ascorbic acid (Sigma), and a ten times concentration of a test compound (10 μl) is added thereto. Thirty minutes later, 25 ng/mL TGF-β (R&D System: 10 μL) is added to the medium, and the cells are cultured for about 44 hr. Twenty four hours before the termination of the culturing, ^3H-labeled proline (Amersham: 1 μCi) is added so as to be taken into collagen in the cells. When the culturing is terminated, 30% trichloroacetic acid (50 μL) is added to the medium. After leaving for 20 min, proteins are precipitated by centrifugation at 3000 rpm for 10 min. The supernatant is removed, and the residue is twice washed with 200 μL of a washing solution (ethanol:ether=3:1). The precipitate is air-dried, and the washing solution is sufficiently removed. After addition of 60 μL of a collagenase solution (2 mg/mL collagenase VII (Sigma), 50 mM Tris-HCl (pH 7.4), 5 mM CaCl2), the resulting mixture is treated at 37° C. for 2 hr to decompose collagen. Then, 90 μL of 15% trichloroacetic acid and 5% tannic acid are added thereto. The resulting mixture is left for 20 min and then centrifuged at 3000 rpm for 10 min. The supernatant (50 μL) is transferred to LumaPlate (PerkinElmer Lifescience) and is air-dried. Then, the amount of ^3H is measured by a Top Count.

Broadly, the IC50 is the midpoint of a concentration-inhibition curve. By melting point is commonly meant the temperature, or range, at which the solid turns liquid. Consider `Cc1cccc(-c2[nH]c(C(C)C)nc2-c2cccc(-c3ccc(S(C)(=O)=O)cc3)c2)n1` [Example 17, 2-{2-Isopropyl-4-[4′-(methylsulfonyl)-1,1′-biphenyl-3-yl]-1H-imidazol-5-yl}-6-methylpyridine], for which the melting point was in the range of 104 to 106 °C. In addition, the IC50 in the series with NRK-49F cells was 350 nM.

The molecule `Cc1cccc(-c2[nH]c(C(C)C)nc2-c2ccc(F)c(-c3ccc(C(=O)NC4CCOCC4)cc3)c2)n1` [Example 65, N-(Tetrahydropyran-4-yl)-4-{2-fluoro-5-[2-isopropyl-5-(6-methylpyridin-2-yl)-1H-imidazol-4-yl]phenyl}benzamide] came in with a melting point of 130 to 132 °C. For the same molecule, in the series on NRK-49F cells, the IC50 turned out to be 520 nM. With `Cc1cccc(-c2nc(C(C)C)[nH]c2-c2ccc(F)c(-c3cnn(C)c3)c2)n1` [Example 110, 2-{5-[4-Fluoro-3-(1-methyl-1H-pyrazol-4-yl)phenyl]-2-isopropyl-1H-imidazol-4-yl}-6-methylpyridine], the melting point fell in the range of 77 to 97 °C. Moreover, the IC50 with NRK-49F cells is 50 nM. For the molecule `Cc1cccc(-c2nc[nH]c2-c2ccc(F)c(-c3cnn(C)c3)c2)n1` [Example 121, 2-{5-[4-Fluoro-3-(1-methyl-1H-pyrazol-4-yl)phenyl]-1H-imidazol-4-yl}-6-methylpyridine], the melting point was found to be 205 °C. The concentration for half-maximal inhibition (IC50) with NRK-49F cells stood at 10 nM.

The molecule `Cc1cccc(-c2[nH]c(C(C)C)nc2-c2ccc(F)c(-c3ccc4c(c3)CCS4(=O)=O)c2)n1` [Example 125, 2-{4-[3-(1,1-Dioxido-2,3-dihydro-1-benzothien-5-yl)-4-fluorophenyl]-2-isopropyl-1H-imidazol-5-yl}-6-methylpyridine] displayed a melting point of 119 to 123 °C. The IC50 with NRK-49F cells is 230 nM. Taken in the same sequence, the figures for `Cc1cccc(-c2[nH]c(C(C)C)nc2-c2ccc(F)c(-c3ccc(S(N)(=O)=O)cc3)c2)n1` [Example 127, 2′-Fluoro-5′-[2-isopropyl-5-(6-methylpyridin-2-yl)-1H-imidazol-4-yl]-1,1′-biphenyl-4-sulfonamide] were 245 to 246 °C and 790 nM. Taken in the same sequence, the figures for `Cc1cccc(-c2[nH]c(C(C)C)nc2-c2ccc(F)c(-c3cn(C)cn3)c2)n1` [Example 130, 2-{4-[4-Fluoro-3-(1-methyl-1H-imidazol-4-yl)phenyl]-2-isopropyl-1H-imidazol-5-yl}-6-methylpyridine] were 100 to 103 °C and 180 nM.

`Cc1cccc(-c2[nH]c(C(C)C)nc2-c2ccc(F)c(-c3c[nH]cn3)c2)n1` [Example 137, 2-{4-[4-Fluoro-3-(1H-imidazol-4-yl)phenyl]-2-isopropyl-1H-imidazol-5-yl}-6-methylpyridine] showed a melting point of 268 to 270 °C. In addition, the IC50 in the series on NRK-49F cells amounted to 70 nM.

Turning to `Cc1cccc(-c2n[nH]cc2-c2ccc(F)c(-c3ccc4c(c3)CCS4(=O)=O)c2)n1` [Example 146, 2-{4-[3-(1,1-Dioxido-2,3-dihydro-1-benzothien-5-yl)-4-fluorophenyl]-1H-pyrazol-3-yl}-6-methylpyridine], the melting point lay within 107 to 109 °C. Besides, the IC50 with NRK-49F cells amounted to 80 nM. Taken in the same sequence, the figures for `Cc1cccc(-c2n[nH]cc2-c2ccc(F)c(-c3ccc(C(C)(C)O)cn3)c2)n1` [Example 160, 2-(6-{2-Fluoro-5-[3-(6-methylpyridin-2-yl)-1H-pyrazol-4-yl]phenyl}pyridin-3-yl)propan-2-ol] were 169 to 172 °C and 190 nM. Taken in the same sequence, the figures for `Cc1cccc(-c2n[nH]cc2-c2ccc(F)c(-c3c[nH]c(C(C)(C)O)n3)c2)n1` [Example 161, 2-(4-{2-Fluoro-5-[3-(6-methylpyridin-2-yl)-1H-pyrazol-4-yl]phenyl}-1H-imidazol-2-yl)propan-2-ol] were 135 to 137 °C and 100 nM. For the molecule `Cc1cccc(-c2n[nH]cc2-c2ccc(F)c(-c3cnn(CCO)c3)c2)n1` [Example 162, 2-(4-{2-Fluoro-5-[3-(6-methylpyridin-2-yl)-1H-pyrazol-4-yl]phenyl}-1H-pyrazol-1-yl)ethanol], in the series on NRK-49F cells, the concentration for half-maximal inhibition (IC50) was 30 nM. On to `Cc1cccc(-c2n[nH]cc2-c2ccc(F)c(-c3cn(C)cn3)c2)n1` [Example 172, 2-{4-[4-Fluoro-3-(1-methyl-1H-imidazol-4-yl)phenyl]-1H-pyrazol-3-yl}-6-methylpyridine], for which the melting point was 168 to 169 °C. Also, the IC50 in the series on NRK-49F cells was 20 nM.

Consider `Cc1cccc(-c2n[nH]cc2-c2ccc(F)c(-c3cn(CCO)cn3)c2)n1` [Example 177, 2-(4-{2-Fluoro-5-[3-(6-methylpyridin-2-yl)-1H-pyrazol-4-yl]phenyl}-1H-imidazol-1-yl)ethanol], for which the melting point worked out at 248 °C. Besides, in the series on NRK-49F cells, the IC50 came to 50 nM. `Cc1cccc(-c2n[nH]cc2-c2ccc(F)c(-c3ccc(N4CCOCC4)cn3)c2)n1` [Example 179, 4-(6-{2-Fluoro-5-[3-(6-methylpyridin-2-yl)-1H-pyrazol-4-yl]phenyl}pyridin-3-yl)morpholine] had a melting point of 88 to 90 °C. Moreover, the IC50 with NRK-49F cells stood at 40 nM. As for `Cc1cccc(-c2n[nH]cc2-c2ccc(F)c(-c3ccc(CN4CCOCC4)cn3)c2)n1` [Example 181, 4-[(6-{2-Fluoro-5-[3-(6-methylpyridin-2-yl)-1H-pyrazol-4-yl]phenyl}pyridin-3-yl)methyl]morpholine], the melting point was in the range of 68 to 70 °C. Also, in the series on NRK-49F cells, the IC50 stood at 20 nM.

On to `Cc1cccc(-c2n[nH]cc2-c2ccc(F)c(-c3cc[nH]c3)c2)n1` [Example 189, 2-{4-[4-Fluoro-3-(1H-pyrrol-3-yl)phenyl]-1H-pyrazol-3-yl}-6-methylpyridine], for which the melting point lay in the range of 162 to 164 °C. Besides, the IC50 with NRK-49F cells is 20 nM. Molecule `Cc1cccc(-c2n[nH]cc2-c2ccc(F)c(-c3ccc(S(N)(=O)=O)cc3)c2)n1` [Example 190, 2′-Fluoro-5′-[3-(6-methylpyridin-2-yl)-1H-pyrazol-4-yl]-1,1′-biphenyl-4-sulfonamide] showed a melting point of 115 to 118 °C. The IC50 with NRK-49F cells was found to be 40 nM. In turn, `Cc1cccc(-c2n[nH]cc2-c2ccc(F)c(-c3cn[nH]c3)c2)n1` [Example 194, 2-{4-[4-Fluoro-3-(1H-pyrazol-4-yl)phenyl]-1H-pyrazol-3-yl}-6-methylpyridine] showed a melting point of 110 to 112 °C. Moreover, the IC50 with NRK-49F cells was 10 nM. Regarding `Cc1cccc(-c2n[nH]cc2-c2ccc(F)c(-c3cnn(C)c3)c2)n1` [Example 195, 2-{4-[4-Fluoro-3-(1-methyl-1H-pyrazol-4-yl)phenyl]-1H-pyrazol-3-yl}-6-methylpyridine], the melting point lay in the range of 155 to 156 °C. Further, the IC50 in the series on NRK-49F cells was 10 nM. In the case of `NS(=O)(=O)c1ccc(-c2cc(-c3c[nH]nc3-c3ccccn3)ccc2F)cc1` [Example 202, 2′-Fluoro-5′-(3-pyridin-2-yl-1H-pyrazol-4-yl)-1,1′-biphenyl-4-sulfonamide], the melting point is 128 °C. The IC50 in the series with NRK-49F cells is 290 nM.

With `Cc1cccc(-c2n[nH]cc2-c2ccc(F)c(-c3c[nH]cn3)c2)n1` [Example 206, 2-{4-[4-Fluoro-3-(1H-imidazol-4-yl)phenyl]-1H-pyrazol-3-yl}-6-methylpyridine], the melting point was 229 to 233 °C. Besides, the half-inhibitory concentration (IC50) in the series on NRK-49F cells worked out at 10 nM. `Cc1cccc(-c2n[nH]cc2-c2ccc(F)c(-c3c[nH]c(CCO)n3)c2)n1` [Example 209, 2-(4-{2-Fluoro-5-[3-(6-methylpyridin-2-yl)-1H-pyrazol-4-yl]phenyl}-1H-imidazol-2-yl)ethanol] showed a melting point of 219 to 220 °C. Moreover, the IC50 in the series on NRK-49F cells came to 50 nM. Taken in the same sequence, the figures for `Cc1cccc(-c2n[nH]cc2-c2ccc(F)c(-c3cn4c(n3)S(=O)(=O)CC4)c2)n1` [Example 212, 6-{2-Fluoro-5-[3-(6-methylpyridin-2-yl)-1H-pyrazol-4-yl]phenyl}-2,3-dihydroimidazo[2,1-b][1,3]thiazole 1,1-dioxide] were 134 to 138 °C and 110 nM. Taken in the same sequence, the figures for `Cc1cccc(-c2nc(N)sc2-c2ccc(F)c(-c3cnn(C)c3)c2)n1` [Example 217, 5-[4-Fluoro-3-(1-methyl-1H-pyrazol-4-yl)phenyl]-4-(6-methylpyridin-2-yl)-1,3-thiazol-2-amine] were 153 to 155 °C and 10 nM.
